Measured values from PubChem BioAssay AID256 (DTP/NCI, 2004).
Values joined by “and” are separate entries in the source; they are usually repeats but may differ in a detail not shown here. Identical values can stand only once. Toxic doses and inconclusive results are not listed. The calls were made as follows: active = survival T/C of 150% or more; inactive = T/C below 125% in these data.

Test system: CD2F1 mice, L1210 leukemia ip, survival T/C
Test: NCI In Vivo Anticancer Drug Screen. Data for tumor model L1210 Leukemia (intraperitoneal) in CD2F1 (CDF1) mice
Conditions: endpoint: mean survival time, higher = longer survival
Method: The antitumor activity of compounds was measured in mice bearing transplantable tumors. Survival or tumor size were measured and the results are expressed as the measurement made in the treated group (T) divided by the measurement made in the vehicle treated control group (C). The tumor model used in this assay is L1210 Leukemia (intraperitoneal) in CD2F1 (CDF1) mice

[1] = dose: 100.0 mg/kg/injection, schedule: Q04DX002 (ip), vehicle: saline with Tween-80
[2] = dose: 200.0 mg/kg/injection, schedule: Q04DX002 (ip), vehicle: saline with Tween-80
[3] = dose: 400.0 mg/kg/injection, schedule: Q04DX002 (ip), vehicle: saline with Tween-80
[4] = dose: 100.0 mg/kg/injection, schedule: Q01DX009 (ip), vehicle: saline with Tween-80
[5] = dose: 200.0 mg/kg/injection, schedule: Q01DX009 (ip), vehicle: saline with Tween-80
[6] = dose: 100.0 mg/kg/injection, schedule: Q01DX001 (ip), vehicle: saline with Tween-80
[7] = dose: 200.0 mg/kg/injection, schedule: Q01DX001 (ip), vehicle: saline with Tween-80
[8] = dose: 400.0 mg/kg/injection, schedule: Q01DX001 (ip), vehicle: saline with Tween-80
[9] = dose: 400.0 mg/kg/injection, schedule: Q01DX009 (ip), vehicle: saline with Tween-80

Measured: T/C

COc1ccc(C(=O)CN(C)S(=O)(=O)c2ccc(C)cc2)cc1
inactive: [1] 97 % of control | [2] 97 % of control | [3] 94 % of control

CCOC(=O)n1cnc2ncnc(SC)c21
inactive: dose: 50.0 mg/kg/injection, schedule: Q01DX001 (ip), vehicle: other 95 % of control | dose: 50.0 mg/kg/injection, schedule: Q01DX009 (ip), vehicle: other 102 % of control | dose: 50.0 mg/kg/injection, schedule: Q01DX009 (ip), vehicle: saline with Tween-80 109 % of control | dose: 100.0 mg/kg/injection, schedule: Q01DX001 (ip), vehicle: other 106 % of control | dose: 100.0 mg/kg/injection, schedule: Q01DX009 (ip), vehicle: other 102 % of control | [4] 101 % of control | dose: 200.0 mg/kg/injection, schedule: Q01DX001 (ip), vehicle: other 102 % of control | dose: 200.0 mg/kg/injection, schedule: Q01DX009 (ip), vehicle: other 123 % of control | [5] 91 % of control | dose: 400.0 mg/kg/injection, schedule: Q01DX001 (ip), vehicle: other 108 % of control | dose: 400.0 mg/kg/injection, schedule: Q01DX009 (ip), vehicle: other 121 % of control

C[n+]1cnc2c(ccn2C2OC(CO)C(O)C2O)c1N (centres undefined)
inactive: dose: 50.0 mg/kg/injection, schedule: Q01DX001 (ip), vehicle: saline 102 % of control | dose: 100.0 mg/kg/injection, schedule: Q01DX001 (ip), vehicle: saline 100 % of control | dose: 200.0 mg/kg/injection, schedule: Q01DX001 (ip), vehicle: saline 102 % of control | dose: 400.0 mg/kg/injection, schedule: Q01DX001 (ip), vehicle: saline 100 % of control

O=C(O)c1ccc(NC(=S)NC(=O)c2cccc(Br)c2)cc1
inactive: [6] 97 % of control | [4] 95 % of control and 97 % of control | [1] 95 % of control | dose: 100.0 mg/kg/injection, schedule: Q04DX003 (ip), vehicle: saline with Tween-80 100 % of control | [7] 88 % of control and 101 % of control | [5] 95 % of control and 101 % of control | [2] 94 % of control and 103 % of control | dose: 200.0 mg/kg/injection, schedule: Q04DX003 (ip), vehicle: saline with Tween-80 90 % of control | [8] 92 % of control and 95 % of control | [9] 86 % of control | [3] 97 % of control and 106 % of control | dose: 400.0 mg/kg/injection, schedule: Q04DX003 (ip), vehicle: saline with Tween-80 93 % of control

NNc1n[nH]c(=S)n1N
inactive: dose: 6.25 mg/kg/injection, schedule: Q01DX009 (ip), vehicle: saline with Tween-80 103 % of control | dose: 12.5 mg/kg/injection, schedule: Q01DX009 (ip), vehicle: saline with Tween-80 102 % of control | dose: 25.0 mg/kg/injection, schedule: Q01DX009 (ip), vehicle: saline with Tween-80 104 % of control and 107 % of control

CC1(C)N=C(N)N=C(N)N1c1cccc(CCC(=O)Nc2ccc(S(=O)(=O)F)cc2)c1
inactive: dose: 50.0 mg/kg/injection, schedule: Q01DX009 (ip), vehicle: saline 100 % of control | dose: 100.0 mg/kg/injection, schedule: Q01DX009 (ip), vehicle: saline 102 % of control | dose: 200.0 mg/kg/injection, schedule: Q01DX009 (ip), vehicle: saline 105 % of control | dose: 300.0 mg/kg/injection, schedule: Q01DX009 (ip), vehicle: saline 105 % of control | dose: 400.0 mg/kg/injection, schedule: Q01DX009 (ip), vehicle: saline 108 % of control

Cc1nc(N)[nH]c(=O)c1NC(=O)c1ccccc1N
inactive: [6] 94 % of control | [7] 87 % of control | [8] 89 % of control

CC(=O)NS(=O)(=O)c1ccc(N=Cc2ccc3c(c2)OCO3)cc1
inactive: [4] 100 % of control | [5] 95 % of control | [9] 94 % of control
